In US8012943B2, “Antibacterial agents” (Optimer Pharmaceuticals, Inc., priority 2003, dated 2011) one finds MIC data, which are given here for four molecules.

Holding throughout (test): MIC, NCCLS broth microdilution
One test concerns E. Coli ATCC 25922. Type of test: cell-based. As to conditions: Escherichia coli, ATCC25922, Table 1. The method, then:
(§1) Antibacterial activity of the novel Formula 1 and Formula 2 compounds and their pharmaceutically acceptable addition salts with organic and inorganic acids was determined against a series of microorganisms from the American Type Culture Collection (ATCC) and clinical Streptococcus sp isolates. The ATCC strains included: Staphylococcus aureus, Enterococcus faecium, Klebsiella pneumoniae, Escherichia coli, Salmonella typhimurium, Streptococcus pneumoniae, Streptococcus pyogenes, and Haemophilus influenzae. The clinical strains included macrolide resistant Streptococcus sp. with either Erm or MefA resistance mechanisms. The clinical isolates were identified using the API biochemical identification system (BioMerieux).
(§2) Antimicrobial susceptibility testing was performed according to recommendations by the National Committee for Clinical Laboratory Standards (NCCLS M100-S12, M7-A5). Briefly, two fold dilutions of compounds were made in microtiter plates. Each well of the microtiter plate was inoculated with test microorganisms at a final density 5×10^5 colony forming units (cfu)/mL. The microtiter plates were incubated at 35° C. under aerobic conditions, except for H. influenzae and S. pyogenes which were incubated at 5% CO2. The minimal inhibitory concentration (MIC) was defined as the lowest concentration of compound that inhibited growth. The results of represented examples of this invention on standard test microorganisms and clinical isolates in comparison with azithromycin and telithromycin are shown in Table 1 and Table 2.

For another test, the system named is E. faecium ATCC 19434. Format: cell-based. As to conditions: Enterococcus faecium, ATCC19434, Table 1. The method, then:
as §1, §2

The next test has as its system K. Pneumonia 13883. Format: cell-based. As to conditions: Klebsiella pneumoniae, Table 1. The protocol: as §1, §2
Test [1] has as its system S. aureus ATCC 29213 (MSSA) MLS-S. Type of test: cell-based. Particulars: Staphylococcus aureus, Table 1. The method, then:
as §1, §2

The next test has as its system S. aureus MRSA 33591. Format: cell-based. As to conditions: Staphylococcus aureus, Table 1. The protocol: as §1, §2
The next test deals with S. pyogenes ATCC 19615. Type of test: cell-based. Particulars: Streptococcus pyogenes, ATCC19615, 5% CO2, Table 1. The protocol: as §1, §2
Test [2] relates to S. Typhimurium ATCC 14028. Type of test: cell-based. Particulars: Salmonella enterica, Table 1. The protocol: as §1
as §2, with “growth.” for “growth. The results of represented examples of this invention on standard test microorganisms and clinical isolates in comparison with azithromycin and telithromycin are shown in Table 1 and Table 2.”

A further test relates to S. pneumoniae 163(MefA). Type of test: cell-based, Streptococcus pneumoniae. Particulars: Streptococcus pneumoniae, read-out: MIC. The method, then:
as §1, §2

A further test deals with S. pneumoniae 303(ErmB). Format: cell-based, Streptococcus pneumoniae. Particulars: Streptococcus pneumoniae, read-out: MIC. The protocol: as §1, §2
For the next test, the system named is S. pneumoniae ATCC 49619. Format: cell-based, Streptococcus pneumoniae. As to conditions: Streptococcus pneumoniae. The method, then:
as §1, §2

For the next test, the system named is H. influenzae ATCC 49247. Format: cell-based, Haemophilus influenzae. As to conditions: 5% CO2. The method, then:
as §1, §2

In the next test the test system is S. pneumoniae 5032. Format: cell-based. As to conditions: Streptococcus pneumoniae, Table 2. The protocol: as §1, §2
Another test concerns S. pyogenes 1721. Type of test: cell-based. As to conditions: Streptococcus pyogenes, Table 2. The protocol: as §1, §2
The next test deals with S. pyogenes 1850. Type of test: cell-based. As to conditions: Streptococcus pyogenes, Table 2. The method, then:
as §1, §2

In a further test the test system is S. pyogenes 3029. Format: cell-based. Particulars: Streptococcus pyogenes, Table 2. The method, then:
as §1, §2

The test system of another test is S. pyogenes 3262. Type of test: cell-based. Particulars: Streptococcus pyogenes, Table 2. The method, then:
as §1, §2

The subject of test [3] is S. pneumoniae 3773 (Erm B). Format: cell-based, Streptococcus pneumoniae. The method, then: as §1, §2
Setting [4] is: S. pneumoniae 163(MefA), Table 1.
[5] abbreviates: S. pneumoniae 303(ErmB), Table 1.
The mark [6] stands for this setting: ATCC49619, Table 1, read-out: MIC.
Where [7] appears, read: Haemophilus influenzae, ATCC49247, H. influenzae ATCC 49247, Table 1, read-out: MIC.

Converted amounts (≈) assume the structure as drawn. Like-named read-outs stand apart in the source and are kept apart here.

On to `CC[C@H]1OC(=O)[C@H](C)[C@@H](O[C@H]2C[C@@](C)(OC)[C@@H](O)[C@H](C)O2)[C@H](C)[C@@H](O[C@@H]2O[C@H](C)C[C@H](N(C)C)[C@H]2O)[C@](C)(O)C[C@@H](C)CN(C)[C@H](C)[C@@H](O)[C@]1(C)O` [Azithromycin, reference compound], for which the MIC with E. Coli ATCC 25922 was 8 µg/mL (≈ 10.7 µM); with E. faecium ATCC 19434 it was 4 µg/mL (≈ 5.34 µM); with K. Pneumonia 13883 it was 8 µg/mL (≈ 10.7 µM); in test [1] it was 1 µg/mL (≈ 1.34 µM); against S. aureus MRSA 33591, more than 64 µg/mL; with S. pyogenes ATCC 19615 it was 1 µg/mL (≈ 1.34 µM). For the same molecule, the MIC in test [2] is 4 µg/mL (≈ 5.34 µM); in the test with S. pneumoniae 163(MefA) (setting [4]), not above 0.125 µg/mL; with S. pneumoniae 303(ErmB) (setting [5]) it was 0.5 µg/mL (≈ 0.668 µM); with S. pneumoniae ATCC 49619 (setting [6]), not above 0.125 µg/mL; in the test with H. influenzae ATCC 49247 (setting [7]), 2 µg/mL (≈ 2.67 µM).
As for `CC[C@H]1OC(=O)[C@H](C)C(=O)[C@H](C)[C@@H](OC2OC(C)CC(N(C)C)C2O)[C@@](C)(OC)C[C@@H](C)C(=O)[C@H](C)[C@H]2N(CCCCn3cc(Cn4nnc5ccccc54)nn3)C(=O)O[C@]12C` (stereo partly drawn) [OP-1007, 11-N-[4-(4-Benzotriazol-1-ylmethyl-[1,2,3]triazol-1-yl)-butyl]-6-O-methyl-5-O-dasosaminyl-3-oxo-erythronolide A, 11,12-carbamate], the MIC against E. Coli ATCC 25922 is 64 µg/mL (≈ 73.8 µM); with E. faecium ATCC 19434 it was not above 0.125 µg/mL; against K. Pneumonia 13883, 32 µg/mL (≈ 36.9 µM); in test [1] it was not above 0.125 µg/mL; against S. aureus MRSA 33591, more than 64 µg/mL; against S. pyogenes ATCC 19615 it was not above 0.125 µg/mL. Also, the MIC in test [2] was 8 µg/mL (≈ 9.23 µM); in the test on S. pneumoniae 163(MefA) (setting [4]), not above 0.125 µg/mL; in the test on S. pneumoniae 303(ErmB) (setting [5]) it was more than 64 µg/mL; in the test with S. pneumoniae ATCC 49619 (setting [6]) it was not above 0.125 µg/mL; in the test on H. influenzae ATCC 49247 (setting [7]), 0.5 µg/mL (≈ 0.577 µM).
As for `CC[C@H]1OC(=O)[C@@](C)(F)C(=O)[C@H](C)[C@@H](O[C@@H]2O[C@H](C)C[C@H](N(C)C)[C@H]2O)[C@](C)(OC)C[C@@H](C)C(=O)[C@H](C)[C@H]2N(CCCCn3cc(-c4cccc(N)c4)nn3)C(=O)O[C@]12C` [OP-1068, 11-N-[4-[4-(3-aminophenyl)-[1,2,3]triazol-1-yl]-butyl]-5-desosaminyl-3-oxo-2-fluoro-erythronolide A, 11,12-cyclic carbamate], the MIC in the test with S. pneumoniae 5032 was 0.5 µg/mL (≈ 0.592 µM); with S. pyogenes 1721, 0.5 µg/mL (≈ 0.592 µM); against S. pyogenes 1850, not above 0.125 µg/mL; with S. pyogenes 3029 it was not above 0.125 µg/mL; against S. pyogenes 3262, 0.5 µg/mL (≈ 0.592 µM); in the test on S. pneumoniae 163(MefA) (S. pneumoniae 163 (Mef A), Table 2) it was not above 0.125 µg/mL. Besides, the MIC was not above 0.125 µg/mL in the test with S. pneumoniae 303(ErmB) (S. pneumoniae ErmB 303, Table 2); 0.5 µg/mL (≈ 0.592 µM) in test [3] (Streptococcus pneumoniae, Table 2, read-out: MIC); 1 µg/mL (≈ 1.18 µM) in test [3] (Table 2); not above 0.125 µg/mL in the test on S. pneumoniae ATCC 49619 (ATCC49619, Table 2, read-out: MIC); 4 µg/mL (≈ 4.73 µM) in the test with H. influenzae ATCC 49247 (H. influenzae ATCC 49247, Table 2); 2 µg/mL (≈ 2.37 µM) in the test on H. influenzae ATCC 49247 (Haemophilus influenzae, ATCC49247, H. influenzae ATCC 49247, Table 2, read-out: MIC).
Regarding `CC[C@H]1OC(=O)[C@H](C)C(=O)[C@H](C)[C@@H](OC2OC(C)C(O)C(N(C)C)C2O)[C@@](C)(OC)C[C@@H](C)C(=O)[C@H](C)[C@H]2N(CCCCn3cc(Cn4nnc5ccccc54)nn3)C(=O)O[C@]12C` (stereo partly drawn) [OP-1071, 11-N-[4-(4-Benzotriazol-1-ylmethyl-[1,2,3]triazol-1-yl)-butyl]-6-O-methyl-5-mycaminosyl-3-oxo-erythronolide A, 11,12-carbamate], the MIC was more than 64 µg/mL against E. Coli ATCC 25922; not above 0.125 µg/mL with E. faecium ATCC 19434; more than 64 µg/mL in the test on K. Pneumonia 13883; 0.25 µg/mL (≈ 0.283 µM) in test [1]; more than 64 µg/mL in the test on S. aureus MRSA 33591; not above 0.125 µg/mL in the test on S. pyogenes ATCC 19615. The MIC in [2] is more than 64 µg/mL; in the test on S. pneumoniae 163(MefA) (setting [4]), 0.5 µg/mL (≈ 0.566 µM); in the test on S. pneumoniae 303(ErmB) (setting [5]) it was more than 64 µg/mL; with S. pneumoniae ATCC 49619 (setting [6]) it was not above 0.125 µg/mL; in the test on H. influenzae ATCC 49247 (setting [7]), 2 µg/mL (≈ 2.26 µM).
